Molecular target: Recombinant human factor B (Homo sapiens (Human), UniProt P00751)
Test: Human Complement Factor B TR-FRET Assay
Assay type: binding
Conditions: assay of Biological Example 2; read-out: hFactor-B TR-FRET Qualified IC50
Experimental: The time-gated decrease in fluorescence intensity related to the competition between labeled and unlabeled factor B ligands was recorded at both 620 nm and 665 nm, 70 us after excitation at 337 nm using a microplate spectrofluorimeter.

Sequence of Recombinant human factor B (P00751 26-764): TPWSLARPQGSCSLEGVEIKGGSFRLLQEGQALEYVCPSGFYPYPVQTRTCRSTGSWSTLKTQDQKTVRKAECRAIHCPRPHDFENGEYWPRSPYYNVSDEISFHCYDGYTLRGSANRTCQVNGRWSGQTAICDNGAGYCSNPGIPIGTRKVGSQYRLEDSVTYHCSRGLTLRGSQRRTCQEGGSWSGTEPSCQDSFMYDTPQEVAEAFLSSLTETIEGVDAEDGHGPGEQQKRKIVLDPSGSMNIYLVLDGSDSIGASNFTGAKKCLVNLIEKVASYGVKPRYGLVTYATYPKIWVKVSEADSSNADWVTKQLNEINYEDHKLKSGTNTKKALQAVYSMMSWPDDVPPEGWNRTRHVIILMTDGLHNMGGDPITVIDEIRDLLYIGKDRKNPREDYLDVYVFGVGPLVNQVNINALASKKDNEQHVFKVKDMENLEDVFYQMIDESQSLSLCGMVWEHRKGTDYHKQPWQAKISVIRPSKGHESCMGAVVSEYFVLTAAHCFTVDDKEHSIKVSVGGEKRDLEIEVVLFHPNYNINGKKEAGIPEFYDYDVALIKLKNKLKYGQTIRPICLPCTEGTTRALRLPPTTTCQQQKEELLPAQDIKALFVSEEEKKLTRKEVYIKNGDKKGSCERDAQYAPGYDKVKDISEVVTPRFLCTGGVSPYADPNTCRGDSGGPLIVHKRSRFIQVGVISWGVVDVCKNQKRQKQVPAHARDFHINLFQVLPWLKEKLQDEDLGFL

| Compound | IC50 |
| --- | --- |
| Cc1cc(C)c2[nH]ccc2c1C[C@@H]1CN(CC(F)(F)F)C[C@H]1c1ccc(C(=O)O)cc1 (racemic) [Ex-26, 4-(4-((5,7-dimethyl-1H-indol-4-yl)methyl)-1-(2,2,2-trifluoroethyl)pyrrolidin-3-yl)benzoic acid] | < 30000 nM |
| Cc1cc(C)c2[nH]ccc2c1C[C@@H]1CN(C)C[C@H]1c1ccc(C(N)=O)cc1 (racemic) [Ex-58, Racemic 4-((3R*,4S*)-4-((5,7-dimethyl-1H-indol-4-yl)methyl)-1-methylpyrrolidin-3-yl)benzamide] | < 30000 nM |
| CCN1C[C@@H](Cc2c(C3CC3)cc(C)c3[nH]ccc23)[C@H](c2ccc(-c3nnn[nH]3)cc2)C1 (racemic) [Ex-61, 4-((4-(4-(1H-tetrazol-5-yl)phenyl)-1-ethylpyrrolidin-3-yl)methyl)-5-cyclopropyl-7-methyl-1H-indole] | < 100 nM |
| Cc1cc(C)c2[nH]ccc2c1C[C@@H]1CCN(CC(F)(F)F)C[C@H]1c1ccc(C(=O)O)cc1 [Ex-1, 4-((3R,4R)-4-((5,7-dimethyl-1H-indol-4-yl)methyl)-1-(2,2,2-trifluoroethyl)piperidin-3-yl)benzoic acid] | < 100 nM |
| Cc1cc(C)c2[nH]ccc2c1C[C@H]1CCN(CC(F)(F)F)C[C@@H]1c1ccc(C(=O)O)cc1 [Ex-2, 4-((3S,4S)-4-((5,7-dimethyl-1H-indol-4-yl)methyl)-1-(2,2,2-trifluoro-ethyl)piperidin-3-yl)benzoic acid] | < 30000 nM |
| Cc1cc(C2CC2)c(C[C@@H]2CCN(CC(F)(F)F)C[C@H]2c2ccc(C(=O)O)cc2)c2cc[nH]c12 [Ex-3, 4-((3R,4R)-4-((5-cyclopropyl-7-methyl-1H-indol-4-yl)methyl)-1-(2,2,2-trifluoroethyl)piperidin-3-yl)benzoic acid] | < 100 nM |
| Cc1cc(C2CC2)c(C[C@H]2CCN(CC(F)(F)F)C[C@@H]2c2ccc(C(=O)O)cc2)c2cc[nH]c12 [Ex-4] | < 30000 nM |
| COc1cc(C)c2[nH]ccc2c1C[C@@H]1CCN(CC(F)(F)F)C[C@H]1c1ccc(C(=O)O)cc1 [Ex-5, 4-((3R,4R)-4-((5-methoxy-7-methyl-1H-indol-4-yl)methyl)-1-(2,2,2-trifluoroethyl)piperidin-3-yl)benzoic acid] | < 1000 nM |
| COc1cc(C)c2[nH]ccc2c1C[C@H]1CCN(CC(F)(F)F)C[C@@H]1c1ccc(C(=O)O)cc1 [Ex-6] | < 30000 nM |
| Cc1cc(C)c2[nH]ccc2c1C[C@@H]1CCN(C)C[C@H]1c1ccc(C(=O)O)cc1 [Ex-8, 4-((3R,4R)-4-((5,7-dimethyl-1H-indol-4-yl)methyl)-1-methylpiperidin-3-yl)benzoic acid] | < 100 nM |
| Cc1cc(C)c2[nH]ccc2c1C[C@H]1CCN(C)C[C@@H]1c1ccc(C(=O)O)cc1 [Ex-9] | < 30000 nM |
| CCN1CC[C@@H](Cc2c(C)cc(C)c3[nH]ccc23)[C@H](c2ccc(C(=O)O)cc2)C1 [Ex-10, 4-((3R,4R)-4-((5,7-dimethyl-1H-indol-4-yl)methyl)-1-ethylpiperidin-3-yl)benzoic acid] | < 100 nM |
| Cc1cc(C)c2[nH]ccc2c1C[C@@H]1CCN(CCF)C[C@H]1c1ccc(C(=O)O)cc1 [Ex-12, 4-((3R,4R)-4-((5,7-dimethyl-1H-indol-4-yl)methyl)-1-(2-fluoroethyl)piperidin-3-yl)benzoic acid] | < 100 nM |
| COCCN1CC[C@@H](Cc2c(C)cc(C)c3[nH]ccc23)[C@H](c2ccc(C(=O)O)cc2)C1 [Ex-14, 4-((3R,4R)-4-((5,7-dimethyl-1H-indol-4-yl)methyl)-1-(2-methoxyethyl)piperidin-3-yl)benzoic acid] | < 100 nM |
| Cc1cc(C)c2[nH]ccc2c1C[C@@H]1CCN(CC(C)(C)O)C[C@H]1c1ccc(C(=O)O)cc1 [Ex-15, 4-((3R,4R)-4-((5,7-dimethyl-1H-indol-4-yl)methyl)-1-(2-hydroxy-2-methylpropyl)piperidin-3-yl)benzoic acid] | < 1000 nM |
| Cc1cc(C)c2[nH]ccc2c1C[C@@H]1CCN(CC2(F)COC2)C[C@H]1c1ccc(C(=O)O)cc1 [Ex-17, 4-((3R,4R)-4-((5,7-dimethyl-1H-indol-4-yl)methyl)-1-((3-fluorooxetan-3-yl)methyl)piperidin-3-yl)benzoic acid] | < 100 nM |
| CCCN1CC[C@@H](Cc2c(C)cc(C)c3[nH]ccc23)[C@H](c2ccc(C(=O)O)cc2)C1 [Ex-20, 4-((3R,4R)-4-((5,7-dimethyl-1H-indol-4-yl)methyl)-1-propylpiperidin-3-yl)benzoic acid] | < 100 nM |
| Cc1cc(C)c2[nH]ccc2c1C[C@@H]1CCN(C2COC2)C[C@H]1c1ccc(C(=O)O)cc1 [Ex-21, 4-((3R,4R)-4-((5,7-dimethyl-1H-indol-4-yl)methyl)-1-(oxetan-3-yl)piperidin-3-yl)benzoic acid] | < 1000 nM |
| Cc1cc(C)c2[nH]ccc2c1C[C@@H]1CCN([C@H]2C[C@H](F)C2)C[C@H]1c1ccc(C(=O)O)cc1 [Ex-22, 4-((3R,4R)-4-((5,7-dimethyl-1H-indol-4-yl)methyl)-1-((1r,3R)-3-fluorocyclobutyl)piperidin-3-yl)benzoic acid] | < 100 nM |

| Compound | IC50 |
| --- | --- |
| Cc1cc(C)c2[nH]ccc2c1C[C@@H]1CCN(CCC(F)F)C[C@H]1c1ccc(C(=O)O)cc1 [Ex-23, 4-((3R,4R)-1-(3,3-difluoropropyl)-4-((5,7-dimethyl-1H-indol-4-yl)methyl)piperidin-3-yl)benzoic acid] | < 100 nM |
| Cc1cc(C)c2[nH]ccc2c1C[C@@H]1CCCN(C)C[C@H]1c1ccc(C(=O)O)cc1 [Ex-27, 4-((3R,4S)-4-((5,7-dimethyl-1H-indol-4-yl)methyl)-1-methylazepan-3-yl)benzoic acid] | < 100 nM |
| CCN1CCC[C@@H](Cc2c(C)cc(C)c3[nH]ccc23)[C@H](c2ccc(C(=O)O)cc2)C1 [Ex-29, 4-((3R,4S)-4-((5,7-dimethyl-1H-indol-4-yl)methyl)-1-ethylazepan-3-yl)benzoic acid] | < 100 nM |
| Cc1cc(C)c2[nH]ccc2c1C[C@@H]1CCN(C)CC[C@H]1c1ccc(C(=O)O)cc1 [Ex-30, 4-((4R,5R)-5-((5,7-dimethyl-1H-indol-4-yl)methyl)-1-methylazepan-4-yl)benzoic acid] | < 100 nM |
| Cc1cc(C)c2[nH]ccc2c1C[C@@H]1CCN(CCC(F)F)CC[C@H]1c1ccc(C(=O)O)cc1 [Ex-32, 4-((4R,5R)-1-(3,3-difluoropropyl)-5-((5,7-dimethyl-1H-indol-4-yl)methyl)azepan-4-yl)benzoic acid] | < 1000 nM |
| Cc1ccc(C[C@@H]2CCN(C)C[C@H]2c2ccc(C(=O)O)cc2)c2cc[nH]c12 [Ex-33, 4-((3R,4R)-1-methyl-4-((7-methyl-1H-indol-4-yl)methyl)piperidin-3-yl)benzoic acid] | < 100 nM |
| Cc1cc(F)c(C[C@@H]2CCN(C)C[C@H]2c2ccc(C(=O)O)cc2)c2cc[nH]c12 [Ex-35, 4-((3R,4R)-4-((5-fluoro-7-methyl-1H-indol-4-yl)methyl)-1-methylpiperidin-3-yl)benzoic acid] | < 100 nM |
| Cc1cc(Cl)c(C[C@@H]2CCN(C)C[C@H]2c2ccc(C(=O)O)cc2)c2cc[nH]c12 [Ex-36, 4-((3R,4R)-4-((5-chloro-7-methyl-1H-indol-4-yl)methyl)-1-methylpiperidin-3-yl)benzoic acid] | < 100 nM |
| CN1CC[C@@H](Cc2c(Cl)cc(Cl)c3[nH]ccc23)[C@H](c2ccc(C(=O)O)cc2)C1 [Ex-37, 4-((3R,4R)-4-((5,7-dichloro-1H-indol-4-yl)methyl)-1-methylpiperidin-3-yl)benzoic acid] | < 100 nM |
| Cc1cc(Cl)c2[nH]ccc2c1C[C@@H]1CCN(C)C[C@H]1c1ccc(C(=O)O)cc1 [Ex-38, 4-((3R,4R)-4-((7-chloro-5-methyl-1H-indol-4-yl)methyl)-1-methylpiperidin-3-yl)benzoic acid] | < 100 nM |
| Cc1cc(C)c2[nH]cc(Cl)c2c1C[C@@H]1CCN(C)C[C@H]1c1ccc(C(=O)O)cc1 [Ex-39, 4-((3R,4R)-4-((3-chloro-5,7-dimethyl-1H-indol-4-yl)methyl)-1-methylpiperidin-3-yl)benzoic acid] | < 100 nM |
| Cc1cc(C)c2[nH]ccc2c1C[C@@H]1CCN(C)C[C@H]1c1ccc(-c2nnn[nH]2)cc1 [Ex-42, 4-(((3R,4R)-3-(4-(1H-tetrazol-5-yl)phenyl)-1-methylpiperidin-4-yl)methyl)-5,7-dimethyl-1H-indole] | < 100 nM |
| Cc1cc(C)c2[nH]ccc2c1C[C@@H]1CCN(CC(F)(F)F)C[C@H]1c1ccc(-c2nnn[nH]2)cc1 [Ex-43, 4-(((3R,4R)-3-(4-(1H-tetrazol-5-yl)phenyl)-1-(2,2,2-trifluoroethyl)piperidin-4-yl)methyl)-5,7-dimethyl-1H-indole] | < 100 nM |
| Cc1cc(C)c2[nH]ccc2c1C[C@@H]1CCN(C)C[C@H]1c1ccc(C#N)cc1 [Ex-44, 4-((3R,4R)-4-((5,7-dimethyl-1H-indol-4-yl)methyl)-1-methylpiperidin-3-yl)benzonitrile] | < 1000 nM |
| Cc1cc(C)c2[nH]ccc2c1C[C@@H]1CCN(CC(F)(F)F)C[C@H]1c1ccc(C#N)cc1 [Ex-45, 4-((3R,4R)-4-((5,7-dimethyl-1H-indol-4-yl)methyl)-1-(2,2,2-trifluoroethyl)piperidin-3-yl)benzonitrile] | < 30000 nM |
| Cc1cc(C)c2[nH]ccc2c1C[C@@H]1CCN(C)C[C@H]1c1ccc(-n2cccn2)cc1 [Ex-46, 4-(((3R,4R)-3-(4-(1H-pyrazol-1-yl)phenyl)-1-methylpiperidin-4-yl)methyl)-5,7-dimethyl-1H-indole] | < 100 nM |
| Cc1cc(C)c2[nH]ccc2c1C[C@@H]1CCN(CC(F)(F)F)C[C@H]1c1ccc(-n2cccn2)cc1 [Ex-47, 4-(((3R,4R)-3-(4-(1H-pyrazol-1-yl)phenyl)-1-(2,2,2-trifluoroethyl)piperidin-4-yl)methyl)-5,7-dimethyl-1H-indole] | < 1000 nM |
| Cc1cc(C)c2[nH]ccc2c1C[C@@H]1CCN(CCC(F)F)C[C@H]1c1ccc(-n2cccn2)cc1 [Ex-48, 4-(((3R,4R)-3-(4-(1H-pyrazol-1-yl)phenyl)-1-(3,3-difluoropropyl)piperidin-4-yl)methyl)-5,7-dimethyl-1H-indole] | < 100 nM |
